In US20260159485A1, “ANDROGEN RECEPTOR DEGRADERS FOR THE TREATMENT OF CASTRATION-RESISTANT PROSTATE CANCER AND USE THEREOF” (AUTOTAC INC., priority 2021, published 2026):

Key:
androgen receptor [1] = target: T1, androgen receptor (Homo sapiens, UniProt P10275); assay: Degradation of androgen receptor through autophagy; format: cell-based; conditions: FIG. 2a to 2c
T1 construct: endogenous in cells
T1 sequence (P10275 1-920): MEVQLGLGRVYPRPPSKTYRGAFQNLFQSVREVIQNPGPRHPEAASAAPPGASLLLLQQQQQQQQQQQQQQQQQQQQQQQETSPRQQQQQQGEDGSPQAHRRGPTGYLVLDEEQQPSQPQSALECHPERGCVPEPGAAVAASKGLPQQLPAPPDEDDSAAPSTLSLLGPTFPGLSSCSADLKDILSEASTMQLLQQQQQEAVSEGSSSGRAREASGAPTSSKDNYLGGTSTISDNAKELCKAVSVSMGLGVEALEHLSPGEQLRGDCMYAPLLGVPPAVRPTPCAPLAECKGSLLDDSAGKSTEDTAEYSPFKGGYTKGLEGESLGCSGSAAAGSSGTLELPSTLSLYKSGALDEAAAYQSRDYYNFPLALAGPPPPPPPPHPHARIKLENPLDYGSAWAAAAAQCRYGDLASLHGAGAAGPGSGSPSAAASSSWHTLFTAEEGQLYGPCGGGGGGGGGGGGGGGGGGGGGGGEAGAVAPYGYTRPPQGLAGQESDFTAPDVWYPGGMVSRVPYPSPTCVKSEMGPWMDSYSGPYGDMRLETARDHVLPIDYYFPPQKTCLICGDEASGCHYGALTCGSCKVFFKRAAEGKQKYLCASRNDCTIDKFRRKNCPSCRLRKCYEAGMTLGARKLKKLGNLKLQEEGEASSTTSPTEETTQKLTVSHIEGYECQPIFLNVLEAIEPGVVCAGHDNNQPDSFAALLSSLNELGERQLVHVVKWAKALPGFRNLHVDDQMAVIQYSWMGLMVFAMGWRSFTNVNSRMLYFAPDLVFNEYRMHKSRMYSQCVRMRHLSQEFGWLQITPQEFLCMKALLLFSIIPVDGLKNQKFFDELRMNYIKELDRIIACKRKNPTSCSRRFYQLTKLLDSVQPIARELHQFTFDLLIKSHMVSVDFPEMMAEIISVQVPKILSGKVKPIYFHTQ
Method: (§1) Hereinafter, experimental examples to show the effects of the disclosed compounds are described. Unless otherwise described, the following experiments were conducted with conventional materials and methos well known in the an for measuring a similar function.
Experimental Example 2. Anticancer Efficacy Via Degradation of Androgen Receptor

[2] = tested on: androgen-responsive and unresponsive cell; assay: Increase of the autophagy flux in androgen-responsive and unresponsive cell; format: cell-based; conditions: FIG. 1; for increase of autophagy at low concentration: 0.01 μM
Method: as §1
Experimental Example 1. Increase of the Autophagy Flux in Androgen-Responsive and Unresponsive Cell by AR Inhibitors of the Present Invention

LNCaP xenograft tumors = assay: Growth of LNCaP xenograft tumors in mice; format: in vivo; conditions: FIG. 8a to 8d
From the text: Experimental Example 4. […] Inhibition of Tumor Growth

[3] = tested on: androgen-responsive prostate cancer cell; assay: Colony formation of prostate cancer cell; format: cell-based; conditions: FIG. 6
Method: as §1
(§2) Experimental Example 3. Compound B Inhibits Proliferation of Androgen-Responsive Prostate Cancer Cell

[4] = tested on: AR-V7-expressing 22Rv1 xenograft; assay: Tumor growth in AR-V7-expressing 22Rv1 xenograft model; format: in vivo; conditions: SCID mice, intraperitoneally 5 times per week, 20 mg/kg; FIG. 10
Method: 22Rv1 cells (4×10^6 cells/animal) were injected subcutaneously into 10-week-old male SCID mice to generate xenograft. The mice bearing tumor were randomly divided into vehicle or AUTOTAC treatment groups (4 or 5 mice per group), Compound B was injected via intraperitoneally 5 times per week at a dose of 20 mg/kg body weight, whereas the vehicle group received an equal volume of PBS containing 5% DMSO and 10% solutol. (FIG. 10)

AR target genes = assay: Down-regulation of AR signaling pathway: expression of AR target genes; format: cell-based; conditions: FIG. 4
Method: as §1
3. Down-Regulation of AR Signaling Pathway

androgen receptor [5] = target: T1, androgen receptor; assay: Inactivation of AR: transcriptional activity of androgen receptor; format: cell-based; conditions: by forming aggregation with p62 in the cytosol; FIG. 3
Method: as §1

androgen receptor [6] = target: T2, androgen receptor (Homo sapiens, UniProt P10275, T878A); assay: Degradation of androgen receptor in tumor of mice; format: in vivo; conditions: LNCaP xenograft tumor; FIG. 8e
T2 construct: from tissue; host or cells: LNCaP xenograft tumour in mice
T2 sequence (P10275 whole entry T878A): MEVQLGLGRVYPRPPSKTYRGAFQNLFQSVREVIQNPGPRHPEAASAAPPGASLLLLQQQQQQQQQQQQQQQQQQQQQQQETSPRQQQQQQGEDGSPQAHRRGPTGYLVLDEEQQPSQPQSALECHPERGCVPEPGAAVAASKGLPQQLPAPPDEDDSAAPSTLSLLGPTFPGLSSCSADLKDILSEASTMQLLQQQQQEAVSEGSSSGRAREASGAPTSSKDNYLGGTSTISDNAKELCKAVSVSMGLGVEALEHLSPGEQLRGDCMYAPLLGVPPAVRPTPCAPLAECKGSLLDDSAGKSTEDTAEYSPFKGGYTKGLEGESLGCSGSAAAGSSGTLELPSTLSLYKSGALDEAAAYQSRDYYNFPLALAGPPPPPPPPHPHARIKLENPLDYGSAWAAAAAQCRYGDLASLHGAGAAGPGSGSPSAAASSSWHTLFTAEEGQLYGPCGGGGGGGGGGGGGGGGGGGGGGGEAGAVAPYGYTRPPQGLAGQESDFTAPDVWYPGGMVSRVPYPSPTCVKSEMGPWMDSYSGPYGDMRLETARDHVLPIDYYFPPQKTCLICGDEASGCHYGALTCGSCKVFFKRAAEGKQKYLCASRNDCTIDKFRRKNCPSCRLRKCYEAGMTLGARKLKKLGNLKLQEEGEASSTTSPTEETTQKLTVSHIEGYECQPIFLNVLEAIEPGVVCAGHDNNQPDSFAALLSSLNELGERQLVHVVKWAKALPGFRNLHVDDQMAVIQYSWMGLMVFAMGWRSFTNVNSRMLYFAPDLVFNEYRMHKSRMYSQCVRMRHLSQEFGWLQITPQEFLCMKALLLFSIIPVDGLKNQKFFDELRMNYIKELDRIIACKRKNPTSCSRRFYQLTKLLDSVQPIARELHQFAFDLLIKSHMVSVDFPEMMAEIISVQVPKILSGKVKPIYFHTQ
T2 sequence (Q13501 whole entry partner): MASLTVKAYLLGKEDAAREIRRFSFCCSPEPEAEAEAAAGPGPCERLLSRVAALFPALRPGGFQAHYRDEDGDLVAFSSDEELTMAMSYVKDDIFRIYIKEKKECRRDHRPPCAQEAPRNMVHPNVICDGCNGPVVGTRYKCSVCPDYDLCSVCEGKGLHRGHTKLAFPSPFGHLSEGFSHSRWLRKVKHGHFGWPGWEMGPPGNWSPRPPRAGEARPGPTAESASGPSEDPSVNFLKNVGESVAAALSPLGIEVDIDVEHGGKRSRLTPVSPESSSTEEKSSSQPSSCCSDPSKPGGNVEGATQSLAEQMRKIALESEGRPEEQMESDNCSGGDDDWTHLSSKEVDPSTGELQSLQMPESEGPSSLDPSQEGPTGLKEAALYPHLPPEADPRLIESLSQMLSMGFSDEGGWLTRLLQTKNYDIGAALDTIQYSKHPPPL
From the text: 2. Degradation of Androgen Receptor

[7] = tested on: AR splice variant 7 (AR-V7); assay: Degradation of AR splice variant 7 in enzalutamide resistant cell; format: cell-based
From the text: (§3) Experimental Example 5. Xtandi-AUTOTAC Degrades AR Splice Variant 7, Predictive Biomarker of Metastatic Castration-Resistant Prostate Cancer Degradation of AR Variant (FIG. 9a to FIG. 9d)

[8] = tested on: androgen-responsive prostate cancer cell; assay: Cell proliferation / cell cycle of prostate cancer cell; format: cell-based; conditions: blocking the cell cycle in G1 phase; FIG. 7
Method: as §1, §2

wild type AR = target: T3, wild type AR (Homo sapiens, UniProt P10275); assay: Degradation of wild type AR in enzalutamide resistant cell; format: cell-based; conditions: FIG. 9a
T3 construct: endogenous in cells
T3 sequence (P10275 1-920): T1 sequence (P10275 1-920)
From the text: as §3

CC1(C)C(=O)N(c2ccc(C#N)c(C(F)(F)F)c2)C(=S)N1c1ccc(C(=O)NCCOCCOCCOCCOCCOCCOCCNC[C@@H](O)COc2ccc(OCc3ccc(F)cc3)c(OCc3ccc(F)cc3)c2)c(F)c1 [Compound C, (R)-N-(24-(3,4-bis((4-fluorobenzyl)oxy)phenoxy)-23-hydroxy-3,6,9,12,15,18-hexaoxa-21-azatetracosyl)-4-(3-(4-cyano-3-(trifluoromethyl)phenyl)-5,5-dimethyl-4-oxo-2-thioxoimidazolidin-1-yl)-2-fluorobenzamide]
degradation of androgen receptor through autophagy (androgen receptor [1]): efficiently degrade androgen receptor | increase of autophagy at low concentration [2]: efficiently increase autophagy

CC1(C)C(=O)N(c2ccc(C#N)c(C(F)(F)F)c2)C(=S)N1c1ccc(OCCCCCCCC(=O)NCCOCCOCCNCc2cccc(OCc3ccc(F)cc3)c2)cc1 [Compound H, 8-(4-(3-(4-cyano-3-(trifluoromethyl)phenyl)-5,5-dimethyl-4-oxo-2-thioxoimidazolidin-1-yl)phenoxy)-N-(2-(2-(2-((3-((4-fluorobenzyl)oxy)benzyl)amino)ethoxy)ethoxy)ethyl)octanamide]
degradation of androgen receptor through autophagy (androgen receptor [1]): efficiently degrade androgen receptor

O=C(COCCOCCOCCOCCNC[C@@H](O)COc1ccc(OCc2ccc(F)cc2)c(OCc2ccc(F)cc2)c1)N1CCN(c2nc(-n3cc(Br)nc3Br)cs2)CC1 [Compound E, (R)-18-(3,4-bis((4-fluorobenzyl)oxy)phenoxy)-1-(4-(4-(2,4-dibromo-1H-imidazol-1-yl)thiazol-2-yl)piperazin-1-yl)-17-hydroxy-3,6,9,12-tetraoxa-15-azaoctadecan-1-one]
degradation of androgen receptor through autophagy (androgen receptor [1]): efficiently degrade androgen receptor

CC1(C)C(=O)N(c2ccc(C#N)c(C(F)(F)F)c2)C(=S)N1c1ccc(C(=O)NCCOCCOCCNC[C@@H](O)COc2ccc(OCc3ccc(F)cc3)c(OCc3ccc(F)cc3)c2)c(F)c1 [Compound A, (R)—N-(2-(2-(2-((3-(3,4-bis((4-fluorobenzyl)oxy)phenoxy)-2-hydroxypropyl)amino)ethoxy)ethoxy)ethyl)-4-(3-(4-cyano-3-(trifluoromethyl)phenyl)-5,5-dimethyl-4-oxo-2-thioxoimidazolidin-1-yl)-2-fluorobenzamide]
degradation of androgen receptor through autophagy (androgen receptor [1]): efficiently degrade androgen receptor | increase of autophagy at low concentration [2]: efficiently increase autophagy

CC1(C)C(=O)N(c2ccc(C#N)c(C(F)(F)F)c2)C(=S)N1c1ccc(C(=O)NCCOCCOCCOCCOCCNC[C@@H](O)COc2cccc(OCc3ccc(F)cc3)c2)c(F)c1 [Compound F, (R)-4-(3-(4-cyano-3-(trifluoromethyl)phenyl)-5,5-dimethyl-4-oxo-2-thioxoimidazolidin-1-yl)-2-fluoro-N-(18-(3-((4-fluorobenzyl)oxy)phenoxy)-17-hydroxy-3,6,9,12-tetraoxa-15-azaoctadecyl)benzamide]
degradation of androgen receptor through autophagy (androgen receptor [1]): efficiently degrade androgen receptor

CC1(C)C(=O)N(c2ccc(C#N)c(C(F)(F)F)c2)C(=S)N1c1ccc(OCCOCCOCCOCCOCCOCCNCc2cccc(OCc3ccc(F)cc3)c2)cc1 [Compound I, 4-(3-(4-((1-(3-((4-fluorobenzyl)oxy)phenyl)-5,8,11,14,17-pentaoxa-2-azanonadecan-19-yl)oxy)phenyl)-4,4-dimethyl-5-oxo-2-thioxoimidazolidin-1-yl)-2-(trifluoromethyl)benzonitrile]
degradation of androgen receptor through autophagy (androgen receptor [1]): efficiently degrade androgen receptor

O[C@H](CNCCOCCOCCOCCOCCN1CCN(c2nc(-n3cc(Br)nc3Br)cs2)CC1)COc1ccc(OCc2ccc(F)cc2)c(OCc2ccc(F)cc2)c1 [Compound D, (R)-18-(3,4-bis((4-fluorobenzyl)oxy)phenoxy)-1-(4-(4-(2,4-dibromo-1H-imidazol-1-yl)thiazol-2-yl)piperazin-1-yl)-3,6,9,12-tetraoxa-15-azaoctadecan-17-ol]
degradation of androgen receptor through autophagy (androgen receptor [1]): efficiently degrade androgen receptor

CC1(C)C(=O)N(c2ccc(C#N)c(C(F)(F)F)c2)C(=S)N1c1ccc(C(=O)NCCOCCOCCOCCOCCNC[C@@H](O)COc2ccc(OCc3ccc(F)cc3)c(OCc3ccc(F)cc3)c2)c(F)c1 [Compound B, (R)—N-(18-(3,4-bis((4-fluorobenzyl)oxy)phenoxy)-17-hydroxy-3,6,9,12-tetraoxa-15-azaoctadecyl)-4-(3-(4-cyano-3-(trifluoromethyl)phenyl)-5,5-dimethyl-4-oxo-2-thioxoimidazolidin-1-yl)-2-fluorobenzamide]
tumor growth in Xenograft mouse model (LNCaP xenograft tumors): efficiently inhibits tumor growth | colony formation of prostate cancer cell [3]: prevents colony formation | degradation of androgen receptor through autophagy (androgen receptor [1]): efficiently degrade androgen receptor | tumor growth in AR-V7-expressing 22Rv1 xenograft model [4]: Inhibits Tumor Growth | expression of AR target genes (AR target genes): down-regulates expression of AR target genes | transcriptional activity of androgen receptor (androgen receptor [5]): inhibits transcriptional activity of androgen receptor | increase of autophagy at low concentration [2]: efficiently increase autophagy | increase of autophagy at early time point ([2]; 1 h): efficiently increases autophagy | degradation of androgen receptor in tumor of mice (androgen receptor [6]): degrades androgen receptor | degradation of AR-V7 by sequestering with wild type AR ([7]; FIG. 9a to 9d): can degrade AR-V7 by sequestering with wild type AR | degradation of AR-V7 ([7]; enzalutamide resistant cell, FIG. 9a): degrades | cell proliferation / cell cycle [8]: inhibits cell proliferation by blocking the cell cycle in G1 phase | degradation of wild type AR (wild type AR): degrades

CC1(C)C(=O)N(c2ccc(C#N)c(C(F)(F)F)c2)C(=S)N1c1ccc(C(=O)NCCCCCCOCCCCCNC[C@@H](O)COc2cccc(OCc3ccc(F)cc3)c2)c(F)c1 [Compound G, (R)-4-(3-(4-cyano-3-(trifluoromethyl)phenyl)-5,5-dimethyl-4-oxo-2-thioxoimidazolidin-1-yl)-2-fluoro-N-(6-((5-((3-(3-((4-fluorobenzyl)oxy)phenoxy)-2-hydroxypropyl)amino)pentyl)oxy)hexyl)benzamide]
degradation of androgen receptor through autophagy (androgen receptor [1]): efficiently degrade androgen receptor
